Data on 19 sequences can be found in patent publication US11846639B2, “Ligand discovery for T cell receptors” (priority 2014, dated 2023).

This experiment relates to AGA1 T cell receptor. Briefly: Selection of yeast-displayed HLA-B5703 peptide library with AGA1 TCR, deep sequencing read counts. It is filed as binding. Particulars: for number of times the peptide was represented, Rd1: after round 1 of selection with AGA1 TCR; for number of times the peptide was represented, Rd2: after round 2 of selection with AGA1 TCR; for number of times the peptide was represented, Rd3: after round 3 of selection with AGA1 TCR; for number of times the peptide was represented, Rd4: after round 4 of selection with AGA1 TCR; for number of times the peptide was represented, Naïve: naïve library before selection. The method, then: Selection of pMHC libraries To maximize sensitivity of selections, all described selection steps were conducted at 4° using cold buffers, and refrigerated centrifuges. All spins were 5,000×g for 1 minute. Before each round of selection, a small sample of yeast (˜1×10^6 cells) were stained with an anti-epitope tag antibody. For the first round of selection, ˜2×10^9 yeast were washed once with PBS+0.5% BSA and 1 mM EDTA (PBE buffer) and then cleared with unloaded Streptavidin Microbeads (250 uL beads in 5 mL PBE) (Miltenyi, 130-048-101) to eliminate any nonspecifically binding yeast clones by incubating 1 hr at 4° with gentle rotation. The yeast were then spun down, resuspended in 5 mL PBE without a wash, and passed through a Miltenyi LS column. […] TCR-binding yeast were then selected via an LS column, washed in SDCAA, and then re-cultured in SDCAA, pH 4.5 at 30° C. overnight. Yeast were re-induced upon reaching OD>2. For each round of selection, at least 10-fold more yeast was used than recovered from the previous round to ensure complete coverage of all selected yeast. Second and third rounds of selection were conducted in the same manner, but with reduced volumes (50 µL of beads in 500 LL PBE). Progress of selections was monitored by counting of cells selected to TCR-bound streptavidin beads as compared to streptavidin beads alone via an Accuri C6 flow cytometer. […] For the final round of selection (conducted when the yeast count enriched by TCR loaded beads was higher than background, usually after 3 rounds), the libraries were stained with 500 nM streptavidin-TCR tetramer as described above, washed 3× with PBE, then incubated with 50 uL anti-Alexa647 Microbeads (Miltenyi, 130-091-395) in 450 µL PBE for 20 minutes. The yeast were washed a final time and passed through a Miltenyi LS column. Enriched yeast were then plated on SDCAA plates for characterization of individual colonies. Individual yeast clones were then screened for tetramer staining as described above. Plasmids containing the selected pMHC were isolated from positive clones via yeast miniprep (Zymoprep II kit, Zymo Research) and sequenced (Sequetech).
Deep sequencing of selection libraries. Pooled plasmids from 5×10^7 yeast from each round of selection were isolated via yeast miniprep (Zymoprep II kit, Zymo Research) and used as PCR template to prepare Illumina samples. Amplicon libraries were designed as follows: (Illumina P5-Truseq read 1-(N8)-Barcode-pMHC-(N8)-Truseq read 2-IlluminaP7). N8 was added immediately after both sequencing primers to generate diversity for low complexity sequencing reads. The adapter and barcode sequences were appended via nested 25-round cycles of PCR of the purified plasmids using Phusion polymerase (NEB). Primers were proximal to the peptide on the pMHC, annealing to the Aga2p leader sequence (5′ end) and MHC β1 domain (3′ end) to ensure high quality sequence reads of the peptide with double coverage. Final PCR products were run on a high percentage agarose gel and purified via gel extraction. PCR products were then quantitated via nanodrop, normalized for each barcoded round of selection to be equally represented, doped with 5-50% PhiX DNA to ensure sufficient sequence diversity for high quality sequence reads, and run on an Illumina MiSeq with 2×150 nt Paired End reads. The initial deep sequencing run, for the 2B4-I-E^k selections, was conducted with 1×150 nt Single End reads. When the sequencing data was analyzed as described below, we saw no significant difference in data quality between single and paired-end reads (as judged by comparing the results for 226/5cc7 when analyzed as single reads vs. paired-end reads). Deep sequencing was conducted at the Stanford Stem Cell Institute Genome Center.
The library was expressed and screened as described above in Example 1, with the AGA1 T cell receptor.
The top 20 peptides after round 3 has the sequences shown below in Table 3. […]

Turning to “ASFRPELAEFW [HLA-B5703 library peptide selected with AGA1 TCR]”, the “number of times the peptide was represented, Rd1” value (“number … Rd1” below) is given as 11; the “number of times the peptide was represented, Rd2” value (“number … Rd2” below) was 14699; the “number of times the peptide was represented, Rd3” value (“number … Rd3” below) is given as 24829; the “number of times the peptide was represented, Rd4” value (“number … Rd4” below) came to 42208. For the same sequence, the “number of times the peptide was represented, Naïve” value (“number … Naïve” below) was 1.

For “ASFSPELRMAW [HLA-B5703 library peptide selected with AGA1 TCR]”, the “number … Rd1” value was 10; the “number … Rd2” value is listed as 9925; the “number … Rd3” value stood at 47218; the “number … Rd4” value was determined as 31919. The “number … Naïve” value amounted to 0.

For “GSLAPEIRMYW [HLA-B5703 library peptide selected with AGA1 TCR]”, the “number … Rd1” value was determined as 11; the “number … Rd2” value amounted to 3108; the “number … Rd3” value was found to be 23178; the “number … Rd4” value is recorded as 10848. For the same sequence, the “number … Naïve” value is on record as 9.

For the sequence “GTIRPEIREMW [HLA-B5703 library peptide selected with AGA1 TCR]”, the “number … Rd1” value is reported as 37; the “number … Rd2” value worked out at 36754; the “number … Rd3” value is listed as 226381; the “number … Rd4” value turned out to be 113394. Moreover, the “number … Naïve” value came out at 5.

On to “KSCTPEVREYF [HLA-B5703 library peptide selected with AGA1 TCR]”, for which the “number … Rd1” value is given as 17; the “number … Rd2” value is on record as 15114; the “number … Rd3” value came to 94896; the “number … Rd4” value is recorded as 49796. The “number … Naïve” value turned out to be 0.

Turning to “KSFVPELKPAF [HLA-B5703 library peptide selected with AGA1 TCR]”, the “number … Rd1” value is 36; the “number … Rd2” value is reported as 37327; the “number … Rd3” value came to 157329; the “number … Rd4” value was 120443. Besides, the “number … Naïve” value came out at 2.

Consider “KSLAPEVRDLF [HLA-B5703 library peptide selected with AGA1 TCR]”, for which the “number … Rd1” value is on record as 8; the “number … Rd2” value was 6502; the “number … Rd3” value came to 34865; the “number … Rd4” value was determined as 22054. For the same sequence, the “number … Naïve” value worked out at 0.

Take “KSLTPEVRGYW [HLA-B5703 library peptide selected with AGA1 TCR]”: the “number … Rd1” value is recorded as 15; the “number … Rd2” value is reported as 13273; the “number … Rd3” value turned out to be 30634; the “number … Rd4” value stood at 38231. For the same sequence, the “number … Naïve” value came out at 1.

For the sequence “LSLRPEIPLFF [HLA-B5703 library peptide selected with AGA1 TCR]”, the “number … Rd1” value was 74; the “number … Rd2” value is 63749; the “number … Rd3” value amounted to 183724; the “number … Rd4” value is 189891. In addition, the “number … Naïve” value was found to be 5.

Take “NSFRPEVAMKY [HLA-B5703 library peptide selected with AGA1 TCR]”: the “number … Rd1” value is given as 7; the “number … Rd2” value came to 6013; the “number … Rd3” value turned out to be 31331; the “number … Rd4” value is recorded as 19786. The “number … Naïve” value worked out at 6.

Take “NSLKPEIPDYF [HLA-B5703 library peptide selected with AGA1 TCR]”: the “number … Rd1” value is listed as 47; the “number … Rd2” value worked out at 48656; the “number … Rd3” value is given as 268475; the “number … Rd4” value turned out to be 171826. The “number … Naïve” value is reported as 11.

For “NSVKPEIRPVW [HLA-B5703 library peptide selected with AGA1 TCR]”, the “number … Rd1” value is listed as 10; the “number … Rd2” value was 10086; the “number … Rd3” value stood at 33679; the “number … Rd4” value is recorded as 32818. The “number … Naïve” value was 6.

Take “RSFVPEIGMGF [HLA-B5703 library peptide selected with AGA1 TCR]”: the “number … Rd1” value worked out at 18; the “number … Rd2” value was 20370; the “number … Rd3” value is 22329; the “number … Rd4” value stood at 65722. Besides, the “number … Naïve” value worked out at 8.

On to “RSFYPEIREYW [HLA-B5703 library peptide selected with AGA1 TCR]”, for which the “number … Rd1” value stood at 19; the “number … Rd2” value came to 14782; the “number … Rd3” value was 119258; the “number … Rd4” value is listed as 48648. In addition, the “number … Naïve” value stood at 7.

For “SALRPEIRLLW [HLA-B5703 library peptide selected with AGA1 TCR]”, the “number … Rd1” value was 50; the “number … Rd2” value is given as 28840; the “number … Rd3” value was determined as 21235; the “number … Rd4” value is 70740. Further, the “number … Naïve” value turned out to be 1.

Regarding “SSFSPELRMRW [HLA-B5703 library peptide selected with AGA1 TCR]”, the “number … Rd1” value was 10; the “number … Rd2” value worked out at 14335; the “number … Rd3” value is listed as 98338; the “number … Rd4” value is on record as 48729. Besides, the “number … Naïve” value is given as 3.

“SSGVPEVRMMF [HLA-B5703 library peptide selected with AGA1 TCR]”: the “number … Rd1” value is reported as 38; the “number … Rd2” value came out at 40422; the “number … Rd3” value worked out at 215079; the “number … Rd4” value turned out to be 125041. Moreover, the “number … Naïve” value was determined as 6.

With “WTYRPEVRGVW [HLA-B5703 library peptide selected with AGA1 TCR]”, the “number … Rd1” value is given as 21; the “number … Rd2” value is 30482; the “number … Rd3” value was 128915; the “number … Rd4” value amounted to 91015. Moreover, the “number … Naïve” value was determined as 4.

For “YSFKPELKEIF [HLA-B5703 library peptide selected with AGA1 TCR]”, the “number … Rd1” value is 5; the “number … Rd2” value worked out at 5648; the “number … Rd3” value stood at 28641; the “number … Rd4” value came to 20312. The “number … Naïve” value was found to be 0.
